The values below come from patent US20240000724A1, “Compositions and Methods for Treatment or Prevention of Oral Mucositis” (PATHWAYS BIOSCIENCE, LLC, priority 2015, published 2024).

This assay deals with Nrf2 (HepG2 cells). As to the kind of experiment: Nrf2 induction by PB201 analogs in HepG2 Nrf2/ARE promoter-luciferase reporter cells. Conditions: 0-7 ug/mL, read 24 h after start of stimulation. The format is cell-based, human. An excerpt:
In this Example, the effects of compounds that are structurally related to 1,3-diphenyl-1,3-propanedione are investigated.

In the case of `O=C(CCCC(=O)c1ccccc1)c1ccccc1` [1,3-dibenzoylpropane], the Nrf2 activation result is reported as “activated Nrf2”.

For the compound `O=C(c1ccccc1)C(Br)C(=O)c1ccccc1` [2-bromo-1,3-diphenyl-1,3-propanedione], the Nrf2 activation result is listed as “activated Nrf2”.
